Measured values reported in patent US8822471B2, “Compounds, pharmaceutical compositions and uses thereof” (Boehringer Ingelheim International GmbH, priority 2011, dated 2014).

Biological target: T1, human GPR119 (Homo sapiens, UniProt Q8TDV5)
T1 construct: expression vector for human GPR119 cDNA (Acc. No. NP_848566); expressed in transfected cells
T1 sequence (Q8TDV5 1-335): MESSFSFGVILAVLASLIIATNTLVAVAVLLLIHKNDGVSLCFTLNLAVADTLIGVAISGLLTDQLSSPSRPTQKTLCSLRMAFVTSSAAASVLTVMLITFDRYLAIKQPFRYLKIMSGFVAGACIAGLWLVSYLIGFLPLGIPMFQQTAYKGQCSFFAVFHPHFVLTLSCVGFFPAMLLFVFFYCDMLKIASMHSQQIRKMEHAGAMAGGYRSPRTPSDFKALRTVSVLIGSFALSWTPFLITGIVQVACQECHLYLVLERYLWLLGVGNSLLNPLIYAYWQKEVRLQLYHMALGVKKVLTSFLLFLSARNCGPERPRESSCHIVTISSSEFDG
Assay: AlphaScreen cAMP assay in MIN6 cells stably transfected with human GPR119
Assay type: cell-based
Conditions: Min-6/hGPR119 cells, AlphaScreen cAMP Assay Kit, 45 minutes incubation at room temperature
Experimental: The compounds of formula I according to the invention modulate the activity of the G-protein-coupled receptor GPR119. The effect of the compounds on the activation of GPR119 and on the stimulation of intracellular cAMP concentration is determined using the AlphaScreen cAMP Assay Kit (Cat. No. #6760625R) made by PerkinElmer.
MIN6 cells [Miyazaki J et al. Endocrinology. 1990 July; 127(1):126-32] are stably transfected with an expression vector for human GPR119 cDNA (Acc. No. NP_848566). Min-6/hGPR119 cells are cultured in DMEM, 10% FBS, 50 μM β-mercaptoethanol, 0.3 mg/mL Geniticin, 2 mM GlutaMAX at 37° C. 5% CO2. For the assay, the cells are seeded in Optiplates (white, 384-well, 160 W-barcoded, TC, sterile with lid, Cat. No. #6007688 (Perkin Elmer); 10000 cells/well; 50 μl). The plates covered with lids are then incubated for 24 hours at 37° C./5% CO2. After the medium is aspirated from the wells completely, 10 μl of the test compound are added, the compounds are diluted using stimulating buffer (140 mM NaCl, 3.6 mM KCl, 0.5 mM NaH2PO4, 0.5 mM MgSO4, 1.5 mM CaCl2, 10 mM Hepes, 5 mM NaHCO3; pH 7.4. 0.5 mM IBMX and 0.1% BSA, the final DMSO concentration is 1%). After 45 minutes incubation at room temperature (approx. 20° C.), the cAMP concentrations are determined using the AlphaScreen cAMP Assay Kit (Cat. No. #6760625R from PerkinElmer).

Compound	EC50
CC(C)c1noc(N2CCC(N(C(=O)c3ccc(-c4cnco4)cc3)C3CC3)CC2)n1 [Example 1, N-Cyclopropyl-N-[1-(3-isopropyl-[1,2,4]oxadiazol-5-yl)-piperidin-4-yl]-4-oxazol-5-yl-benzamide]	15 nM
CC(C)Cc1noc(N2CCC(N(C(=O)c3ccc(-c4cnco4)cc3)C3CC3)CC2)n1 [Example 2, N-Cyclopropyl-N-[1-(3-isobutyl-[1,2,4]oxadiazol-5-yl)-piperidin-4-yl]-4-oxazol-5-yl-benzamide]	15 nM
CC(C)(C)c1noc(N2CCC(N(C(=O)c3ccc(-c4cnco4)cc3)C3CC3)CC2)n1 [Example 3, N-[1-(3-tert-Butyl-[1,2,4]oxadiazol-5-yl)-piperidin-4-yl]-N-cyclopropyl-4-oxazol-5-yl-benzamide]	19 nM
COCc1noc(N2CCC(N(C(=O)c3ccc(-c4cnco4)cc3)C3CC3)CC2)n1 [Example 4, N-Cyclopropyl-N-[1-(3-methoxymethyl-[1,2,4]oxadiazol-5-yl)-piperidin-4-yl]-4-oxazol-5-yl-benzamide]	160 nM
O=C(c1ccc(-c2cnco2)cc1)N(C1CC1)C1CCN(c2nc(-c3ccc(I)cc3)no2)CC1 [Example 5, N-Cyclopropyl-N-{1-[3-(4-iodo-phenyl)-[1,2,4]oxadiazol-5-yl]-piperidin-4-yl}-4-oxazol-5-yl-benzamide]	14 nM
O=C(c1ccc(-c2cnco2)cc1)N(C1CC1)C1CCN(c2nc(-c3ccccc3)no2)CC1 [Example 6, N-Cyclopropyl-4-oxazol-5-yl-N-[1-(3-phenyl-[1,2,4]oxadiazol-5-yl)-piperidin-4-yl]-benzamide]	23 nM
O=C(c1ccc(-c2cnco2)cc1)N(C1CC1)C1CCN(c2nc(Cc3ccccc3)no2)CC1 [Example 7, N-[1-(3-Benzyl-[1,2,4]oxadiazol-5-yl)-piperidin-4-yl]-N-cyclopropyl-4-oxazol-5-yl-benzamide]	69 nM
CCCc1noc(N2CCC(N(C(=O)c3ccc(-c4cnco4)cc3)C3CC3)CC2)n1 [Example 8, N-Cyclopropyl-4-oxazol-5-yl-N-[1-(3-propyl-[1,2,4]oxadiazol-5-yl)-piperidin-4-yl]-benzamide]	36 nM
O=C(c1ccc(-c2cnco2)cc1)N(C1CC1)C1CCN(c2nc(-c3ccncc3)no2)CC1 [Example 9, N-Cyclopropyl-4-oxazol-5-yl-N-[1-(3-pyridin-4-yl-[1,2,4]oxadiazol-5-yl)-piperidin-4-yl]-benzamide]	80 nM
O=C(c1ccc(-c2cnco2)cc1)N(C1CC1)C1CCN(c2nc(-c3ccc(F)cc3)no2)CC1 [Example 10, N-Cyclopropyl-N-{1-[3-(4-fluoro-phenyl)-[1,2,4]oxadiazol-5-yl]-piperidin-4-yl}-4-oxazol-5-yl-benzamide]	13 nM
O=C(c1ccc(-c2cnco2)cc1)N(C1CC1)C1CCN(c2nc(-c3cccc(Br)c3)no2)CC1 [Example 11, N-{1-[3-(3-Bromo-phenyl)-[1,2,4]oxadiazol-5-yl]-piperidin-4-yl}-N-cyclopropyl-4-oxazol-5-yl-benzamide]	97 nM
CCc1noc(N2CCC(N(C(=O)c3ccc(-c4cnco4)cc3)C3CC3)CC2)n1 [Example 12, N-Cyclopropyl-N-[1-(3-ethyl-[1,2,4]oxadiazol-5-yl)-piperidin-4-yl]-4-oxazol-5-yl-benzamide]	51 nM
C=CCc1noc(N2CCC(N(C(=O)c3ccc(-c4cnco4)cc3)C3CC3)CC2)n1 [Example 13, N-[1-(3-Allyl-[1,2,4]oxadiazol-5-yl)-piperidin-4-yl]-N-cyclopropyl-4-oxazol-5-yl-benzamide]	26 nM
O=C(c1ccc(-c2cnco2)cc1)N(C1CC1)C1CCN(c2nc(-c3ccsc3)no2)CC1 [Example 14, N-Cyclopropyl-4-oxazol-5-yl-N-[1-(3-thiophen-3-yl-[1,2,4]oxadiazol-5-yl)-piperidin-4-yl]-benzamide]	27 nM
O=C(c1ccc(-c2cnco2)cc1)N(C1CC1)C1CCN(c2nc(-c3cccnc3)no2)CC1 [Example 15, N-Cyclopropyl-4-oxazol-5-yl-N-[1-(3-pyridin-3-yl-[1,2,4]oxadiazol-5-yl)-piperidin-4-yl]-benzamide]	153 nM
Cc1nc(-c2noc(N3CCC(N(C(=O)c4ccc(-c5cnco5)cc4)C4CC4)CC3)n2)cs1 [Example 16, N-Cyclopropyl-N-{1-[3-(2-methyl-thiazol-4-yl)-[1,2,4]oxadiazol-5-yl]-piperidin-4-yl}-4-oxazol-5-yl-benzamide]	206 nM

Compound	EC50
O=C(c1ccc(-c2ccncc2)cc1)N(C1CC1)C1CCN(c2nc(-c3ccccc3)no2)CC1 [Example 17, N-Cyclopropyl-N-[1-(3-phenyl-[1,2,4]oxadiazol-5-yl)-piperidin-4-yl]-4-pyridin-4-yl-benzamide]	23 nM
O=C(c1ccc(-c2cnco2)cc1)N(C1CC1)C1CCN(c2nc(-c3ccccn3)no2)CC1 [Example 18, N-Cyclopropyl-4-oxazol-5-yl-N-[1-(3-pyridin-2-yl-[1,2,4]oxadiazol-5-yl)-piperidin-4-yl]-benzamide]	275 nM
CCc1cnc(N2CCC(N(C(=O)c3ccc(-c4cnco4)cc3)C3CC3)CC2)nc1 [Example 19, N-Cyclopropyl-N-[1-(5-ethyl-pyrimidin-2-yl)-piperidin-4-yl]-4-oxazol-5-yl-benzamide]	32 nM
O=C(c1ccc(-c2cnco2)cc1)N(C1CC1)C1CCN(c2ncccn2)CC1 [Example 20, N-Cyclopropyl-4-oxazol-5-yl-N-(1-pyrimidin-2-yl-piperidin-4-yl)-benzamide]	393 nM
N#Cc1ccc(N2CCC(N(C(=O)c3ccc(-c4cnco4)cc3)C3CC3)CC2)nc1 [Example 21, N-[1-(5-Cyano-pyridin-2-yl)-piperidin-4-yl]-N-cyclopropyl-4-oxazol-5-yl-benzamide]	143 nM
O=C(c1ccc(-c2cnco2)cc1)N(C1CC1)C1CCN(c2nc3ccccc3o2)CC1 [Example 22, N-(1-Benzooxazol-2-yl-piperidin-4-yl)-N-cyclopropyl-4-oxazol-5-yl-benzamide]	60 nM
CCCc1cnc(N2CCC(N(C(=O)c3ccc(-c4cnco4)cc3)C3CC3)CC2)nc1 [Example 23, N-Cyclopropyl-4-oxazol-5-yl-N-[1-(5-propyl-pyrimidin-2-yl)-piperidin-4-yl]-benzamide]	44 nM
O=C(c1ccc(-c2cnco2)cc1)N(C1CC1)C1CCN(c2ncc(-c3ccc(Cl)cc3)cn2)CC1 [Example 24, N-{1-[5-(4-Chloro-phenyl)-pyrimidin-2-yl]-piperidin-4-yl}-N-cyclopropyl-4-oxazol-5-yl-benzamide]	232 nM
O=C(c1ccc(-c2cnco2)cc1)N(C1CC1)C1CCN(c2ncc(Br)cn2)CC1 [Example 25, N-[1-(5-Bromo-pyrimidin-2-yl)-piperidin-4-yl]-N-cyclopropyl-4-oxazol-5-yl-benzamide]	17 nM
COc1cnc(N2CCC(N(C(=O)c3ccc(-c4cnco4)cc3)C3CC3)CC2)nc1 [Example 26, N-Cyclopropyl-N-[1-(5-methoxy-pyrimidin-2-yl)-piperidin-4-yl]-4-oxazol-5-yl-benzamide]	47 nM
COc1ccc(-c2cnc(N3CCC(N(C(=O)c4ccc(-c5cnco5)cc4)C4CC4)CC3)nc2)cc1 [Example 27, N-Cyclopropyl-N-{1-[5-(4-methoxy-phenyl)-pyrimidin-2-yl]-piperidin-4-yl}-4-oxazol-5-yl-benzamide]	71 nM
O=C(c1ccc(-c2cnco2)cc1)N(C1CC1)C1CCN(c2ccccn2)CC1 [Example 28, N-Cyclopropyl-4-oxazol-5-yl-N-(1-pyridin-2-yl-piperidin-4-yl)-benzamide]	676 nM
O=C(c1ccc(-c2cnco2)cc1)N(C1CC1)C1CCN(c2ncc(F)cn2)CC1 [Example 29, N-Cyclopropyl-N-[1-(5-fluoro-pyrimidin-2-yl)-piperidin-4-yl]-4-oxazol-5-yl-benzamide]	78 nM
O=C(c1ccc(-c2cnco2)cc1)N(C1CC1)C1CCN(c2ncc(Cl)cn2)CC1 [Example 30, N-[1-(5-Chloro-pyrimidin-2-yl)-piperidin-4-yl]-N-cyclopropyl-4-oxazol-5-yl-benzamide]	19 nM
O=C(c1ccc(-c2cnco2)cc1)N(C1CC1)C1CCN(c2ccc(C(F)(F)F)cn2)CC1 [Example 31, N-Cyclopropyl-4-oxazol-5-yl-N-[1-(5-trifluoromethyl-pyridin-2-yl)-piperidin-4-yl]-benzamide]	38 nM
